In PubChem BioAssay AID248 (DTP/NCI, 2004):
Where “and” joins values, the source holds several entries; their conditions need not be identical. Equal entries are not always repeated. Toxic doses and inconclusive results are not listed. Rule as the data show it: active = T/C of 150% or more; inactive = T/C below 125%. Peptide text beside a SMILES is read from it. * marks the point of attachment. Cbz = O=C(OCc1ccccc1)*; NHNH2 = NN*

System: L1210 leukemia ip in BDF1 mice, survival T/C
Assay: NCI In Vivo Anticancer Drug Screen. Data for tumor model L1210 Leukemia (intraperitoneal) in B6D2F1 (BDF1) mice
Settings: endpoint: mean survival time, higher = longer survival
Summary of the method: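 Each compound was tested against a transplantable tumor grown in mice. The endpoint was survival, with treated animals benchmarked against vehicle controls as a simple ratio.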

[1] = dose: 100.0 mg/kg/injection, schedule: Q04DX003 (ip), vehicle: Klucel (hydroxypropylcellulose) (HPC)
[2] = dose: 200.0 mg/kg/injection, schedule: Q04DX003 (ip), vehicle: Klucel (hydroxypropylcellulose) (HPC)
[3] = dose: 400.0 mg/kg/injection, schedule: Q01DX001 (ip), vehicle: carboxymethylcellulose (CMC)
[4] = dose: 400.0 mg/kg/injection, schedule: Q04DX003 (ip), vehicle: Klucel (hydroxypropylcellulose) (HPC)
[5] = dose: 100.0 mg/kg/injection, schedule: Q01DX001 (ip), vehicle: saline
[6] = dose: 200.0 mg/kg/injection, schedule: Q01DX001 (ip), vehicle: saline
[7] = dose: 100.0 mg/kg/injection, schedule: Q01DX001 (ip), vehicle: carboxymethylcellulose (CMC)
[8] = dose: 200.0 mg/kg/injection, schedule: Q01DX001 (ip), vehicle: carboxymethylcellulose (CMC)
[9] = dose: 100.0 mg/kg/injection, schedule: Q01DX009 (ip), vehicle: Klucel (hydroxypropylcellulose) (HPC)
[10] = dose: 200.0 mg/kg/injection, schedule: Q01DX009 (ip), vehicle: Klucel (hydroxypropylcellulose) (HPC)
[11] = dose: 400.0 mg/kg/injection, schedule: Q01DX009 (ip), vehicle: Klucel (hydroxypropylcellulose) (HPC)

Measured: T/C

C[N+](C)(C)C1(Cc2ccccc2)c2ccccc2-c2ccc(Br)cc21 (stereo not drawn)
inactive: dose: 25.0 mg/kg/injection, schedule: Q01DX009 (ip), vehicle: saline 104 % of control | dose: 25.0 mg/kg/injection, schedule: Q04DX003 (ip), vehicle: saline 102 % of control | dose: 50.0 mg/kg/injection, schedule: Q01DX009 (ip), vehicle: saline 95 % of control | dose: 50.0 mg/kg/injection, schedule: Q04DX003 (ip), vehicle: saline 97 % of control | dose: 100.0 mg/kg/injection, schedule: Q01DX009 (ip), vehicle: saline 94 % of control | dose: 100.0 mg/kg/injection, schedule: Q04DX003 (ip), vehicle: saline 98 % of control and 100 % of control

O=C1OC(/C=C/c2ccccc2)=NC/1=C\c1ccc(O)cc1
inactive: dose: 100.0 mg/kg/injection, schedule: Q04DX002 (ip), vehicle: saline with Tween-80 104 % of control | dose: 200.0 mg/kg/injection, schedule: Q04DX002 (ip), vehicle: saline with Tween-80 93 % of control | dose: 400.0 mg/kg/injection, schedule: Q04DX002 (ip), vehicle: saline with Tween-80 93 % of control

COC(=O)C1CC2c3ccccc3C1c1ccccc12 (stereo not drawn)
inactive: dose: 100.0 mg/kg/injection, schedule: Q01DX009 (ip), vehicle: saline with Tween-80 110 % of control | [1] 108 % of control | dose: 176.0 mg/kg/injection, schedule: Q01DX001 (ip), vehicle: carboxymethylcellulose (CMC) 96 % of control and 92 % of control | dose: 200.0 mg/kg/injection, schedule: Q01DX009 (ip), vehicle: saline with Tween-80 89 % of control | [2] 97 % of control | dose: 264.0 mg/kg/injection, schedule: Q01DX001 (ip), vehicle: carboxymethylcellulose (CMC) 93 % of control | [3] 95 % of control | dose: 400.0 mg/kg/injection, schedule: Q01DX009 (ip), vehicle: saline with Tween-80 95 % of control | [4] 93 % of control | dose: 600.0 mg/kg/injection, schedule: Q01DX001 (ip), vehicle: carboxymethylcellulose (CMC) 98 % of control

CC(c1ccc(-c2ccccc2)cc1)C(Cl)c1ccccc1 (stereo not drawn)
inactive: dose: 100.0 mg/kg/injection, schedule: Q01DX001 (ip), vehicle: saline with Tween-80 91 % of control | dose: 200.0 mg/kg/injection, schedule: Q01DX001 (ip), vehicle: saline with Tween-80 91 % of control | dose: 400.0 mg/kg/injection, schedule: Q01DX001 (ip), vehicle: saline with Tween-80 93 % of control

Cc1cc(=O)n2c3c(ccc([N+](=O)[O-])c13)OC2
inactive: [5] 104 % of control | [6] 99 % of control | dose: 400.0 mg/kg/injection, schedule: Q01DX001 (ip), vehicle: saline 95 % of control

CCC(=O)CC(C)CC (stereo not drawn)
inactive: dose: 50.0 mg/kg/injection, schedule: Q01DX001 (ip), vehicle: carboxymethylcellulose (CMC) 94 % of control | [7] 102 % of control | [8] 91 % of control | [3] 102 % of control

O=C(O)c1c(Br)c(Br)c(Br)c(Br)c1C(=O)Nc1cccc2c(O)cccc12
inactive: [9] 110 % of control | [10] 107 % of control | [11] 96 % of control

Nc1cccc2cc3ccccc3nc12
inactive: dose: 25.0 mg/kg/injection, schedule: Q04DX003 (ip), vehicle: Klucel (hydroxypropylcellulose) (HPC) 102 % of control | dose: 50.0 mg/kg/injection, schedule: Q04DX003 (ip), vehicle: Klucel (hydroxypropylcellulose) (HPC) 92 % of control | [1] 86 % of control

N#CC(NC(=O)NCCCl)c1ccccc1 (stereo not drawn)
inactive: [1] 104 % of control | [2] 101 % of control

CN(C)c1ccc2c(c1)C(=O)c1cc(Br)ccc1-2
inactive: [7] 105 % of control | [8] 100 % of control | [3] 108 % of control

O=C(Nc1cccc([N+](=O)[O-])c1)Nc1ccc(F)c([N+](=O)[O-])c1
inactive: [9] 102 % of control | [10] 101 % of control | [11] 98 % of control

Oc1ccccc1C=NCCN1CC1.Oc1ccccc1C=NCCN1CC1.[Cu]
inactive: dose: 6.25 mg/kg/injection, schedule: Q01DX001 (ip), vehicle: Klucel (hydroxypropylcellulose) (HPC) 88 % of control | dose: 12.5 mg/kg/injection, schedule: Q01DX001 (ip), vehicle: Klucel (hydroxypropylcellulose) (HPC) 95 % of control | dose: 25.0 mg/kg/injection, schedule: Q01DX001 (ip), vehicle: Klucel (hydroxypropylcellulose) (HPC) 95 % of control

OCCNc1ccccc1
inactive: [5] 93 % of control | [6] 101 % of control

O=C(NCCCl)NC(Cc1ccccc1)Cc1ccccc1
inactive: [1] 95 % of control | [2] 91 % of control | [4] 95 % of control

Fc1ccc(P(c2ccc(F)cc2)c2ccc(F)cc2)cc1
inactive: dose: 25.0 mg/kg/injection, schedule: Q01DX009 (ip), vehicle: Klucel (hydroxypropylcellulose) (HPC) 97 % of control | dose: 50.0 mg/kg/injection, schedule: Q01DX009 (ip), vehicle: Klucel (hydroxypropylcellulose) (HPC) 89 % of control | [1] 103 % of control

CC(O)C(NC(=O)OCc1ccccc1)C(=O)NC(CO)C(=O)NN (stereo not drawn) (Cbz-Thr-Ser-NHNH2; configuration not given here)
inactive: dose: 5.0 mg/kg/injection, schedule: Q01DX001 (ip), vehicle: saline 103 % of control | dose: 10.0 mg/kg/injection, schedule: Q01DX001 (ip), vehicle: saline 103 % of control | dose: 20.0 mg/kg/injection, schedule: Q01DX001 (ip), vehicle: saline 103 % of control | dose: 40.0 mg/kg/injection, schedule: Q01DX001 (ip), vehicle: saline 105 % of control | dose: 80.0 mg/kg/injection, schedule: Q01DX001 (ip), vehicle: saline 97 % of control | [5] 103 % of control and 98 % of control | [6] 95 % of control

CC(C)OP(=O)(CCCCCCCCCCP(=O)(OC(C)C)OC(C)C)OC(C)C
inactive: dose: 100.0 mg/kg/injection, schedule: Q04DX002 (ip), vehicle: saline 113 % of control | dose: 200.0 mg/kg/injection, schedule: Q04DX002 (ip), vehicle: saline 102 % of control | dose: 400.0 mg/kg/injection, schedule: Q04DX002 (ip), vehicle: saline 98 % of control

CC1CN(Cc2ccccc2)CC(C)N1C(=O)c1ccccc1 (stereo not drawn)
inactive: dose: 100.0 mg/kg/injection, schedule: Q01DX009 (ip), vehicle: water 95 % of control | dose: 100.0 mg/kg/injection, schedule: Q04DX003 (ip), vehicle: water 109 % of control | dose: 200.0 mg/kg/injection, schedule: Q01DX009 (ip), vehicle: water 93 % of control | dose: 200.0 mg/kg/injection, schedule: Q04DX003 (ip), vehicle: water 113 % of control | dose: 400.0 mg/kg/injection, schedule: Q01DX009 (ip), vehicle: water 104 % of control | dose: 400.0 mg/kg/injection, schedule: Q04DX003 (ip), vehicle: water 110 % of control

Nc1c([N+](=O)[O-])cc(Cl)c(Cl)c1F
inactive: dose: 100.0 mg/kg/injection, schedule: Q04DX002 (ip), vehicle: Klucel (hydroxypropylcellulose) (HPC) 101 % of control | dose: 200.0 mg/kg/injection, schedule: Q04DX002 (ip), vehicle: Klucel (hydroxypropylcellulose) (HPC) 96 % of control | dose: 400.0 mg/kg/injection, schedule: Q04DX002 (ip), vehicle: Klucel (hydroxypropylcellulose) (HPC) 96 % of control

O=c1[nH]cc(CCC(F)(F)F)c(=O)[nH]1
inactive: dose: 100.0 mg/kg/injection, schedule: Q04DX002 (ip), vehicle: sodium bicarbonate 102 % of control | dose: 200.0 mg/kg/injection, schedule: Q04DX002 (ip), vehicle: sodium bicarbonate 102 % of control

CC(=O)Nc1c(Cl)cc(I)cc1Cl
inactive: [9] 103 % of control | [10] 103 % of control | [11] 97 % of control
